From the supplement of paper PMC13207355

Legend:
Details in all cases: exposure time: 72 h
[1] = system: E13 (patient-derived glioblastoma stem cells of classical subtype); assay: phenotypic distance (Euclidean, principal components) from DMSO controls (arbitrary units); higher = stronger morphological change
[2] = system: E21 (patient-derived glioblastoma stem cells of mesenchymal subtype); assay: as above
[3] = system: E28 (patient-derived glioblastoma stem cells of classical subtype); assay: as above
[4] = system: E31 (patient-derived glioblastoma stem cells of proneural subtype); assay: as above
[5] = system: E34 (patient-derived glioblastoma stem cells of proneural subtype); assay: as above
[6] = system: FT3469 (normal neural stem cell line); assay: as above
[7] = system: E57 (patient-derived glioblastoma stem cells of mesenchymal subtype); assay: as above
[8] = system: E13; assay: surviving fraction (nuclei count normalised to DMSO); higher = more cells surviving (less toxic)
[9] = system: E21; assay: as above
[10] = system: E28; assay: as above
[11] = system: E31; assay: as above
[12] = system: E34; assay: as above
[13] = system: FT3469; assay: as above
[14] = system: E57; assay: as above
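Wherever phenotypic distance (Euclidean, principal components) from DMSO controls is given: cell Painting imaging in 384-well plates, CellProfiler features reduced to at least 20 principal components, Euclidean distance versus same-plate DMSO vehicle wells (0.1% v/v), median over six images per well.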
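Wherever surviving fraction (nuclei count normalised to DMSO) is given: nuclei counted by high-content imaging of Hoechst-stained cells in laminin-coated 384-well plates, relative to 0.1% DMSO vehicle wells, with staurosporine as cell-death control.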

CC(C)C[C@H](NC(=O)CNC(=O)c1cc(Cl)ccc1Cl)B1OC(=O)C(CC(=O)O)(CC(=O)O)O1 [MLN9708]
Details	phenotypic distance	surviving fraction
[1], 4.1 nM	9.36	–
[1], 12.3 nM	9.93	–
[1], 37 nM	9	–
[1], 111.1 nM	12.2	–
[1], 333.3 nM	10.8	–
[1], 1000 nM	10.1	–
[1], 3000 nM	16.2	–
[2], 4.1 nM	7.66	–
[2], 12.3 nM	7.71	–
[2], 37 nM	11.9	–
[2], 111.1 nM	7.64	–
[2], 333.3 nM	11.8	–
[2], 1000 nM	11.7	–
[2], 3000 nM	15.7	–
[3], 4.1 nM	3.84	–
[3], 12.3 nM	3.91	–
[3], 37 nM	4.06	–
[3], 111.1 nM	7.19	–
[3], 333.3 nM	5.5	–
[3], 1000 nM	5.6	–
[3], 3000 nM	6.86	–
[4], 4.1 nM	5.67	–
[4], 12.3 nM	7.74	–
[4], 37 nM	9.26	–
[4], 111.1 nM	14.5	–
[4], 333.3 nM	11.4	–
[4], 1000 nM	13	–
[4], 3000 nM	12.3	–
[5], 4.1 nM	5.41	–
[5], 12.3 nM	6.29	–
[5], 37 nM	7.18	–
[5], 111.1 nM	10.9	–
[5], 333.3 nM	8.93	–
[5], 1000 nM	12.6	–
[5], 3000 nM	10.5	–
[6], 4.1 nM	3.13	–
[6], 12.3 nM	3.57	–
[6], 37 nM	5.22	–
[6], 111.1 nM	6.65	–
[6], 333.3 nM	7.14	–
[6], 1000 nM	7.83	–
[6], 3000 nM	8.15	–
[7], 4.1 nM	11.8	–
[7], 12.3 nM	12.3	–
[7], 37 nM	11.3	–
[7], 111.1 nM	10.8	–
[7], 333.3 nM	14.4	–
[7], 1000 nM	8.37	–
[7], 3000 nM	8.49	–
[8], 4.1 nM	–	0.0208
[8], 12.3 nM	–	0.00954
[8], 37 nM	–	0.0104
[8], 111.1 nM	–	0.00174
[8], 333.3 nM	–	0.00347
[8], 1000 nM	–	0.00607
[8], 3000 nM	–	0.000868
[9], 4.1 nM	–	0.0299
[9], 12.3 nM	–	0.0187
[9], 37 nM	–	0.0103
[9], 111.1 nM	–	0.0103
[9], 333.3 nM	–	0.0084
[9], 1000 nM	–	0.00373
[9], 3000 nM	–	0.000933
[10], 4.1 nM	–	0.244
[10], 12.3 nM	–	0.239
[10], 37 nM	–	0.158
[10], 111.1 nM	–	0.0898
[10], 333.3 nM	–	0.0988
[10], 1000 nM	–	0.0719
[10], 3000 nM	–	0.0719
[11], 4.1 nM	–	0.082
[11], 12.3 nM	–	0.0803
[11], 37 nM	–	0.0151
[11], 111.1 nM	–	0.00335
[11], 333.3 nM	–	0.00669
[11], 1000 nM	–	0.00335
[11], 3000 nM	–	0.00669
[12], 4.1 nM	–	0.307
[12], 12.3 nM	–	0.293
[12], 37 nM	–	0.123
[12], 111.1 nM	–	0.0439
[12], 333.3 nM	–	0.064
[12], 1000 nM	–	0.0421
[12], 3000 nM	–	0.0549
[13], 4.1 nM	–	0.412
[13], 12.3 nM	–	0.492
[13], 37 nM	–	0.439
[13], 111.1 nM	–	0.445
[13], 333.3 nM	–	0.306
[13], 1000 nM	–	0.156
[13], 3000 nM	–	0.212
[14], 4.1 nM	–	0.0256
[14], 12.3 nM	–	0.0162
[14], 37 nM	–	0.011
[14], 111.1 nM	–	0.00523
[14], 333.3 nM	–	0.00523
[14], 1000 nM	–	0.00366
[14], 3000 nM	–	0.0105
